Assays:
[1] = organism: Rattus norvegicus; experiment: Selectivity ratio of IC50 for rat Hao1 to IC50 for rat Hao2
[2] = target: T1, 2-Hydroxyacid oxidase 2 (Homo sapiens) (UniProt Q9NYQ3); experiment: Inhibition of human Hao2-mediated oxidation of 2-hydroxyoctanoic acid assessed as proportionate release of H2O2 at 10 uM
T1 sequence (whole entry): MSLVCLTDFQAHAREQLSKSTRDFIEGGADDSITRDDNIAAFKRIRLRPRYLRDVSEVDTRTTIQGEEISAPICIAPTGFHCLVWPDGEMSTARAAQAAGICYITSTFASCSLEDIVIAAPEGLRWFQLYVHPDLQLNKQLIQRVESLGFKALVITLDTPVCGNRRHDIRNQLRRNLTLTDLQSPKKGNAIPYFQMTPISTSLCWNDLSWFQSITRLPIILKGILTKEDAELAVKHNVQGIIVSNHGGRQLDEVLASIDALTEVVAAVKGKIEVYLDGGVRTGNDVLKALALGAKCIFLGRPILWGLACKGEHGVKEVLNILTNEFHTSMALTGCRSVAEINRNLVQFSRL

[3] = target: T2, 2-Hydroxyacid oxidase 2 (Rattus norvegicus, UniProt Q07523); experiment: Inhibition of rat Hao2-mediated oxidation of 2-hydroxyoctanoic acid assessed as proportionate release of H2O2
T2 sequence (Q07523 whole entry): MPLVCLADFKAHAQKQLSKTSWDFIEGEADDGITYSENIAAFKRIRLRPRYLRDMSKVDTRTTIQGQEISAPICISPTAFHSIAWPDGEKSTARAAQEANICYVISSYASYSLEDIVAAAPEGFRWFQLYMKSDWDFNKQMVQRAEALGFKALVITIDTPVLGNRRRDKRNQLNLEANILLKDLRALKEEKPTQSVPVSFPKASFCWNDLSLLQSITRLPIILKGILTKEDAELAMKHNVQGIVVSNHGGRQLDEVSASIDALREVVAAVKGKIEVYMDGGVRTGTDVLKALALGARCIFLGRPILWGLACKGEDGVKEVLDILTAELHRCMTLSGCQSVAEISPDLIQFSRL

[4] = target: T1, 2-Hydroxyacid oxidase 2 (Homo sapiens); experiment: Inhibition of human Hao2-mediated oxidation of 2-hydroxyoctanoic acid assessed as proportionate release of H2O2 at 1 uM

SMILES | Ratio IC50 [1] | inhibition [2] [%] | IC50 [3] [nM] | inhibition [4] [%]
CC(C)c1n[nH]c(C(=O)O)c1Cc1cccc(-c2ccc(F)cc2)c1 | > 150 | 11 | 500 | 2
O=C(O)c1n[nH]c(Cc2ccccc2)c1Cc1cccc(-c2ccc(F)cc2)c1 | – | – | 700 | –
Cc1n[nH]c(C(=O)O)c1Cc1ccc(-c2ccc(C(F)(F)F)cc2)cc1 | > 150 | 14 | – | 5
Cc1n[nH]c(C(=O)O)c1Cc1cccc(F)c1 | > 150 | 13 | 200 | 1
Cc1n[nH]c(C(=O)O)c1Cc1ccc2ccccc2c1 | > 150 | 12 | 1100 | 8
Cc1n[nH]c(C(N)=O)c1Cc1cccc(-c2ccc(F)cc2)c1 | – | 14 | – | 1
Cc1n[nH]c(C(=O)O)c1CCc1ccc(-c2ccc(F)cc2)cc1 | > 150 | 39 | 900 | 5
O=C(O)c1n[nH]c(CCc2ccccc2)c1Cc1cccc(-c2ccc(F)cc2)c1 | – | – | 800 | –
O=C(O)c1[nH]nc(Cc2ccccc2)c1Cc1cccc(-c2ccc(F)cc2)c1 | > 150 | 8 | – | 10
Cc1[nH]nc(C(=O)O)c1Cc1cccc2ccccc12 | – | – | 200 | –
Cc1n[nH]c(C(=O)O)c1Cc1cccc(-c2ccc(C#N)cc2)c1 | > 150 | 46 | – | 13
Cc1[nH]nc(C(=O)O)c1Cc1ccccc1C(F)(F)F | – | – | 1300 | –
Cc1[nH]nc(C(=O)O)c1Cc1ccc(-c2ccc(C(F)(F)F)cc2)cc1 | – | – | 1100 | –
Cc1n[nH]c(C(=O)O)c1Cc1cccc(-c2ccccc2F)c1 | > 150 | 22 | 900 | 5
Cc1[nH]nc(C(=O)O)c1Cc1ccc(F)cc1 | – | – | 700 | –
Cc1[nH]nc(C(=O)O)c1Cc1ccc(Oc2ccccc2)cc1 | – | – | 500 | –
Cc1n[nH]c(C(=O)O)c1Cc1ccc(OC(F)(F)F)cc1 | > 150 | 34 | 1300 | 7
Cc1n[nH]c(C(=O)O)c1Cc1ccc(F)cc1 | > 150 | 14 | – | 7
Cc1n[nH]c(C(=O)O)c1Cc1cccc(-c2ccc(C(N)=O)cc2)c1 | > 150 | 60 | 200 | 18

SMILES | Ratio IC50 [1] | inhibition [2] [%] | IC50 [3] [nM] | inhibition [4] [%]
Cc1[nH]nc(C(=O)O)c1Cc1ccc(-c2ccc(OC(F)(F)F)cc2)cc1 | – | – | 2000 | –
Cc1n[nH]c(C(=O)O)c1Cc1cccc(OC(F)(F)F)c1 | > 150 | 26 | 700 | 2
Cc1[nH]nc(C(=O)O)c1Cc1cccc(-c2ccc(C(F)(F)F)cc2)c1 | – | – | 400 | –
Cc1n[nH]c(C(=O)O)c1Cc1cccc(-c2ccncc2)c1 | > 150 | 49 | 300 | 13
Cc1n[nH]c(C(=O)O)c1Cc1cccc(-c2cccnc2)c1 | > 150 | 45 | – | 13
O=C(O)c1[nH]nc(-c2ccccc2)c1Cc1cccc(-c2ccc(F)cc2)c1 | > 150 | 14 | 1800 | 1
Cc1n[nH]c(C(=O)O)c1Cc1cc2ccccc2s1 | > 150 | 29 | – | 8
Cc1n[nH]c(C(=O)O)c1Cc1ccccc1C(F)(F)F | > 150 | 38 | – | 13
Cc1n[nH]c(C(=O)O)c1Cc1cccc(C(F)(F)F)c1 | > 150 | 23 | – | 5
Cc1[nH]nc(C(=O)O)c1Cc1cccc(-c2ccc(CC(=O)O)cc2)c1 | – | – | 400 | –
Cc1n[nH]c(C(=O)O)c1Cc1ccc(-c2ccc(F)cc2)cc1 | > 150 | 25 | – | 11
Cc1n[nH]c(C(=O)O)c1Cc1cccc(Oc2ccccc2)c1 | > 150 | 41 | 600 | 12
Cc1[nH]nc(C(N)=O)c1Cc1cccc(-c2ccc(F)cc2)c1 | – | – | 1400 | –
Cc1n[nH]c(C(=O)O)c1Cc1cccc(C#N)c1 | > 150 | 19 | – | 6
Cc1[nH]nc(C(=O)O)c1Cc1ccc(C(N)=O)cc1 | – | – | 1100 | –
CCOc1[nH]nc(C(=O)O)c1Cc1cccc(-c2ccc(F)cc2)c1 | – | – | 1200 | –
Cc1n[nH]c(C(=O)O)c1Cc1ccc2ccccc2n1 | > 150 | 18 | 1700 | 2
CCOc1n[nH]c(C(=O)O)c1Cc1cccc(-c2ccc(F)cc2)c1 | > 150 | 17 | – | 1
Cc1[nH]nc(C(=O)O)c1Cc1cccc(C(F)(F)F)c1 | – | – | 300 | –

SMILES | Ratio IC50 [1] | inhibition [2] [%] | IC50 [3] [nM] | inhibition [4] [%]
Cc1n[nH]c(C(=O)O)c1Cc1cccc(-c2ccc(F)cc2)c1 | > 150 | 55 | – | 16
Cc1n[nH]c(C(=O)O)c1Cc1cccc(-c2ccc(C(F)(F)F)cc2)c1 | > 150 | 30 | – | 8
Cc1[nH]nc(C(=O)O)c1Cc1cccc(C#N)c1 | – | – | 500 | –
Cc1n[nH]c(C(=O)O)c1Cc1cccc(-c2cccc(F)c2)c1 | > 150 | 50 | – | 20
Cc1[nH]nc(C(=O)O)c1Cc1cccc(-c2cccnc2)c1 | – | – | 400 | –
Cc1n[nH]c(C(=O)O)c1Cc1ccc(C(N)=O)cc1 | > 150 | 8 | – | 0
Cc1[nH]nc(C(=O)O)c1Cc1ccc(-c2ccc(F)cc2)cc1 | – | – | 400 | –
Cc1n[nH]c(C(=O)O)c1CCc1cccc(-c2ccc(F)cc2)c1 | > 150 | 45 | 900 | 9
O=C(O)c1[nH]nc(CCc2ccccc2)c1Cc1cccc(-c2ccc(F)cc2)c1 | > 150 | 16 | – | 4
CCc1n[nH]c(C(=O)O)c1Cc1cccc(-c2ccc(F)cc2)c1 | > 150 | 36 | – | 5
Cc1n[nH]c(C(=O)O)c1Cc1ccc(Oc2ccccc2)cc1 | > 150 | 43 | – | 10
Cc1[nH]nc(C(=O)O)c1Cc1cccc(-c2cccc(F)c2)c1 | – | – | 500 | –
Cc1n[nH]c(C(=O)O)c1Cc1ccc(-c2ccc(OC(F)(F)F)cc2)cc1 | > 150 | 29 | – | 11
Cc1n[nH]c(C(=O)O)c1Cc1cccc2ccccc12 | > 150 | 59 | – | 22
Cc1n[nH]c(C(=O)O)c1Cc1cccc(C(N)=O)c1 | > 150 | 8 | – | 8
Cc1n[nH]c(C(=O)O)c1Cc1cccc(-c2ccc(CC(=O)O)cc2)c1 | > 150 | 21 | – | 2
Cc1[nH]nc(C(=O)O)c1Cc1cccc(C(N)=O)c1 | – | – | 900 | –
CCc1[nH]nc(C(=O)O)c1Cc1cccc(-c2ccc(F)cc2)c1 | – | – | 300 | –
Cc1[nH]nc(C(=O)O)c1Cc1cccc(-c2ccc(C#N)cc2)c1 | – | – | 300 | –
